#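 These data come from cells grown in 96-well plates and exposed to compound for 48 hours at five concentrations. Abbreviation: GI50, concentration required for 50% inhibition of growth. Definition used: TGI = concentration required for complete inhibition of growth.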
# Experiments:
# Experiment in all cases: NCI tumour cell line growth inhibition, 48 h
# 786-0 renal = test system: 786-0 renal
# A498 renal = test system: A498 renal
# A549 NSCLC = test system: A549 NSCLC
# ACHN renal = test system: ACHN renal
# BT-549 breast = test system: BT-549 breast
# CAKI-1 renal = test system: CAKI-1 renal
# CCRF-CEM leukemia = test system: CCRF-CEM leukemia
# COLO 205 colon = test system: COLO 205 colon
# DU-145 prostate = test system: DU-145 prostate
# EKVX NSCLC = test system: EKVX NSCLC
# HCC-2998 colon = test system: HCC-2998 colon
# HCT-116 colon = test system: HCT-116 colon
# HCT-15 colon = test system: HCT-15 colon
# HL-60(TB) leukemia = test system: HL-60(TB) leukemia
# HOP-62 NSCLC = test system: HOP-62 NSCLC
# HOP-92 NSCLC = test system: HOP-92 NSCLC
# HS 578T breast = test system: HS 578T breast
# HT29 colon = test system: HT29 colon
# IGROV1 ovarian = test system: IGROV1 ovarian
# K-562 leukemia = test system: K-562 leukemia
# KM12 colon = test system: KM12 colon
# LOX IMVI melanoma = test system: LOX IMVI melanoma
# M14 melanoma = test system: M14 melanoma
# MALME-3M melanoma = test system: MALME-3M melanoma
# MCF7 breast = test system: MCF7 breast
# MDA-MB-231 breast = test system: MDA-MB-231 breast
# MDA-MB-435 = test system: MDA-MB-435
# MDA-MB-468 breast = test system: MDA-MB-468 breast
# MOLT-4 leukemia = test system: MOLT-4 leukemia
# NCI-H226 lung = test system: NCI-H226 lung
# NCI-H23 lung = test system: NCI-H23 lung
# NCI-H460 lung = test system: NCI-H460 lung
# NCI-H522 lung = test system: NCI-H522 lung
# OVCAR-3 ovarian = test system: OVCAR-3 ovarian
# OVCAR-4 ovarian = test system: OVCAR-4 ovarian
# OVCAR-5 ovarian = test system: OVCAR-5 ovarian
# OVCAR-8 ovarian = test system: OVCAR-8 ovarian
# PC-3 prostate = test system: PC-3 prostate
# RPMI-8226 leukemia = test system: RPMI-8226 leukemia
# RXF 393 renal = test system: RXF 393 renal
# SF-268 CNS = test system: SF-268 CNS
# SF-295 CNS = test system: SF-295 CNS
# SF-539 CNS = test system: SF-539 CNS
# SK-MEL-28 melanoma = test system: SK-MEL-28 melanoma
# SK-MEL-5 melanoma = test system: SK-MEL-5 melanoma
# SK-OV-3 ovarian = test system: SK-OV-3 ovarian
# SN12C renal = test system: SN12C renal
# SNB-19 CNS = test system: SNB-19 CNS
# SNB-75 CNS = test system: SNB-75 CNS
# SR leukemia = test system: SR leukemia
# SW-620 colon = test system: SW-620 colon
# T-47D breast = test system: T-47D breast
# TK-10 renal = test system: TK-10 renal
# U251 CNS = test system: U251 CNS
# UACC-257 melanoma = test system: UACC-257 melanoma
# UACC-62 melanoma = test system: UACC-62 melanoma
# UO-31 renal = test system: UO-31 renal
compound,measurement,setting,value
COc1ccc(C(SCCNCc2cc(N(C)C)ccn2)(c2ccccc2)c2ccccc2)cc1,GI50,786-0 renal,1.4 µM
same,TGI,786-0 renal,7.55 µM
same,GI50,A498 renal,15.6 µM
same,TGI,A498 renal,30.1 µM
same,GI50,A549 NSCLC,3.79 µM
same,TGI,A549 NSCLC,20 µM
same,GI50,ACHN renal,2.48 µM
same,TGI,ACHN renal,18.5 µM
same,GI50,BT-549 breast,1.92 µM
same,TGI,BT-549 breast,6.03 µM
same,GI50,CAKI-1 renal,3.54 µM
same,TGI,CAKI-1 renal,17.6 µM
same,GI50,CCRF-CEM leukemia,0.468 µM
same,TGI,CCRF-CEM leukemia,15.4 µM
same,GI50,COLO 205 colon,1.09 µM
same,TGI,COLO 205 colon,2.97 µM
same,GI50,DU-145 prostate,3.5 µM
same,TGI,DU-145 prostate,12.8 µM
same,GI50,EKVX NSCLC,1.5 µM
same,TGI,EKVX NSCLC,17.1 µM
same,GI50,HCC-2998 colon,0.7 µM
same,TGI,HCC-2998 colon,2.14 µM
same,GI50,HCT-116 colon,0.324 µM
same,TGI,HCT-116 colon,10.5 µM
same,GI50,HCT-15 colon,0.432 µM
same,TGI,HCT-15 colon,11.6 µM
same,GI50,HL-60(TB) leukemia,2.11 µM
same,TGI,HL-60(TB) leukemia,5.28 µM
same,GI50,HOP-62 NSCLC,4.34 µM
same,TGI,HOP-62 NSCLC,19.8 µM
same,GI50,HOP-92 NSCLC,2.16 µM
same,TGI,HOP-92 NSCLC,11 µM
same,GI50,HS 578T breast,1.37 µM
same,TGI,HS 578T breast,9.32 µM
same,GI50,HT29 colon,2.25 µM
same,TGI,HT29 colon,5.66 µM
same,GI50,IGROV1 ovarian,3.43 µM
same,TGI,IGROV1 ovarian,17.1 µM
same,GI50,K-562 leukemia,0.697 µM
same,TGI,K-562 leukemia,13.6 µM
same,GI50,KM12 colon,3.66 µM
same,TGI,KM12 colon,16 µM
same,GI50,LOX IMVI melanoma,2.04 µM
same,TGI,LOX IMVI melanoma,11.4 µM
same,GI50,M14 melanoma,0.447 µM
same,TGI,M14 melanoma,2.48 µM
same,GI50,MALME-3M melanoma,3.36 µM
same,TGI,MALME-3M melanoma,15.8 µM
same,GI50,MCF7 breast,0.322 µM
same,TGI,MCF7 breast,11 µM
same,GI50,MDA-MB-231 breast,1.48 µM
same,TGI,MDA-MB-231 breast,4.8 µM
same,GI50,MDA-MB-435,0.214 µM
same,TGI,MDA-MB-435,0.475 µM
same,GI50,MDA-MB-468 breast,0.544 µM
same,TGI,MDA-MB-468 breast,2.9 µM
same,GI50,MOLT-4 leukemia,3.47 µM
same,TGI,MOLT-4 leukemia,13.6 µM
same,GI50,NCI-H226 lung,4.45 µM
same,TGI,NCI-H226 lung,17.8 µM
same,GI50,NCI-H23 lung,3.12 µM
same,TGI,NCI-H23 lung,13.1 µM
same,GI50,NCI-H460 lung,2.93 µM
same,TGI,NCI-H460 lung,12.5 µM
same,GI50,NCI-H522 lung,0.707 µM
same,TGI,NCI-H522 lung,5.77 µM
same,GI50,OVCAR-3 ovarian,2.53 µM
same,TGI,OVCAR-3 ovarian,12.4 µM
same,GI50,OVCAR-4 ovarian,9.25 µM
same,TGI,OVCAR-4 ovarian,22.7 µM
same,GI50,OVCAR-5 ovarian,3.07 µM
same,TGI,OVCAR-5 ovarian,11.9 µM
same,GI50,OVCAR-8 ovarian,1.87 µM
same,TGI,OVCAR-8 ovarian,18.1 µM
same,GI50,PC-3 prostate,1.67 µM
same,TGI,PC-3 prostate,15 µM
same,GI50,RPMI-8226 leukemia,0.954 µM
same,TGI,RPMI-8226 leukemia,10 µM
same,GI50,RXF 393 renal,2.61 µM
same,TGI,RXF 393 renal,11.5 µM
same,GI50,SF-268 CNS,4.02 µM
same,TGI,SF-268 CNS,20.4 µM
same,GI50,SF-295 CNS,0.618 µM
same,TGI,SF-295 CNS,11.5 µM
same,GI50,SF-539 CNS,1.61 µM
same,TGI,SF-539 CNS,3.83 µM
same,GI50,SK-MEL-28 melanoma,5.6 µM
same,TGI,SK-MEL-28 melanoma,18.7 µM
same,GI50,SK-MEL-5 melanoma,1.08 µM
same,TGI,SK-MEL-5 melanoma,3.82 µM
same,GI50,SK-OV-3 ovarian,3.57 µM
same,TGI,SK-OV-3 ovarian,15.9 µM
same,GI50,SN12C renal,1.49 µM
same,TGI,SN12C renal,13.7 µM
same,GI50,SNB-19 CNS,3.48 µM
same,TGI,SNB-19 CNS,15.3 µM
same,GI50,SNB-75 CNS,2.86 µM
same,TGI,SNB-75 CNS,13.6 µM
same,GI50,SR leukemia,0.566 µM
same,TGI,SR leukemia,> 100 µM
same,GI50,SW-620 colon,0.916 µM
same,TGI,SW-620 colon,16.8 µM
same,GI50,T-47D breast,4.7 µM
same,TGI,T-47D breast,21.9 µM
same,GI50,TK-10 renal,9.54 µM
same,TGI,TK-10 renal,21.7 µM
same,GI50,U251 CNS,0.592 µM
same,TGI,U251 CNS,13.6 µM
same,GI50,UACC-257 melanoma,5.71 µM
same,TGI,UACC-257 melanoma,19.8 µM
same,GI50,UACC-62 melanoma,4.22 µM
same,TGI,UACC-62 melanoma,16.6 µM
same,GI50,UO-31 renal,3.78 µM
same,TGI,UO-31 renal,17.5 µM
